The nature of one data set: cells. The settings on record: Influenza A virus, MDCK, 48 h.
Data set [1] in a line: Cytotoxicity against MDCK cells after 48 hrs by CellTiter96 assay. The following applies: dog. The data set is classed as cell-based, Canis lupus familiaris.
Data set [2] in a line: Cytotoxicity against human 293T cells after 48 hrs by CellTiter96 assay. The class given is cell-based, HEK-293T.

One may read the EC50 as the concentration giving half of the maximal effect. The low end stands for greater potency, the high end for weaker potency. Regarding `CCC(CC)O[C@@H]1C=C(C(=O)NO)C[C@H](N)[C@H]1NC(C)=O`, the EC50 in “cells” was 359 nM.

Turning to `CCC(CC)O[C@@H]1C=C(C(=O)NOC)C[C@H](N)[C@H]1NC(C)=O`, a half-maximal response in “cells” (EC50) required 127 nM.

In “cells”, `CCC(CC)O[C@@H]1C=C(C(=O)NOCc2ccccc2)C[C@H](N)[C@H]1NC(C)=O` yielded an EC50 of 72.4 nM.

Turning to `CCC(CC)O[C@@H]1C=C(C(=O)NOCCCc2cc3ccccc3[nH]2)C[C@H](N)[C@H]1NC(C)=O`, in the data set “cells”, the EC50 came to 60.1 nM.

The CC50 is the concentration that lowers cell viability or growth by half. `CCC(CC)O[C@@H]1C=C(C(=O)NOC)C[C@H](NC(=N)N)[C@H]1NC(C)=O`: the CC50 at 48 h in data set [1] and in data set [2] was > 100000 nM in each case. The compound also came in with a 50% effective concentration (EC50) in the data set “cells” of 71.7 nM.

`CCC(CC)O[C@@H]1C=C(C(=O)NOCc2ccccc2)C[C@H](NC(=N)N)[C@H]1NC(C)=O` gave a 50% effective concentration (EC50) in the data set “cells” of 23.8 nM. That is a double-digit nanomolar value.

`CCC(CC)O[C@@H]1C=C(C(=O)NOCCCc2cc3ccccc3[nH]2)C[C@H](NC(=N)N)[C@H]1NC(C)=O`: the CC50 at 48 h in data set [1] and in data set [2] was > 100000 nM each time. This compound also showed a concentration for a half-maximal effect (EC50) in the data set “cells” of 90.7 nM.

Turning to `CCC(CC)O[C@@H]1C=C(C(=O)NS(C)(=O)=O)C[C@H](N)[C@H]1NC(C)=O`, the EC50 in the data set “cells” came out at 401 nM.

The compound `CCC(CC)O[C@@H]1C=C(C(=O)NS(=O)(=O)C(F)(F)F)C[C@H](N)[C@H]1NC(C)=O` had a concentration for a half-maximal effect (EC50) in the data set “cells” of 2220 nM. Against the preceding compound, the EC50 is about 5.5-fold higher.

Consider `CCCCS(=O)(=O)NC(=O)C1=C[C@@H](OC(CC)CC)[C@H](NC(C)=O)[C@@H](N)C1`, for which the EC50 in “cells” stood at 1980 nM. The EC50 values of the last two compounds are within 1.5-fold of each other.

For the compound `CCC(CC)O[C@@H]1C=C(C(=O)NS(=O)(=O)c2ccccc2)C[C@H](N)[C@H]1NC(C)=O`, a half-maximal response in the data set “cells” (EC50) required 7490 nM.

For `CCC(CC)O[C@@H]1C=C(C(=O)NS(C)(=O)=O)C[C@H](NC(=N)N)[C@H]1NC(C)=O`, the CC50 at 48 h in data set [1] and in data set [2] was > 100000 nM each time. This compound returned a half-maximal effective concentration (EC50) in “cells” of 59.1 nM.

`CCC(CC)O[C@@H]1C=C(C(=O)NS(=O)(=O)C(F)(F)F)C[C@H](NC(=N)N)[C@H]1NC(C)=O` showed an EC50 in “cells” of 484 nM.

Take `CCCCS(=O)(=O)NC(=O)C1=C[C@@H](OC(CC)CC)[C@H](NC(C)=O)[C@@H](NC(=N)N)C1`: in “cells”, the EC50 was determined as 261 nM.

Compound `CCC(CC)O[C@@H]1C=C(C(=O)NS(=O)(=O)c2ccccc2)C[C@H](NC(=N)N)[C@H]1NC(C)=O` yielded an EC50 in “cells” of 593 nM.

In turn, `CCC(CC)O[C@@H]1C=C(C(=O)O)C[C@H](N)[C@H]1NC(C)=O` [OSELTAMIVIR CARBOXYLATE] had a 50% effective concentration (EC50) in “cells” of 28.2 nM.
